Laboratory results published in ChEMBL document CHEMBL5260810, “Inhibition of bromodomain-containing protein 9 for the prevention of epigenetically-defined drug resistance” (Bioorg Med Chem Lett, 2017).
Activity calls are given as the source filed them. The calls are words filed in the database; no cut-off is given here.

What was measured:
THP-1 = assay: Cytotoxicity against human THP-1 cells measured after 8 days; format: functional, cell-based; details: THP-1, 192 h
NCI-H1299 = assay: Antiproliferative activity against human NCI-H1299 cells assessed as reduction in colony formation up to 20 uM supplemented with fresh medium containing compound every 3 days for 9 days by MTT staining based clonogenic assay; format: functional, cell-based; details: time 9.0 day
BT-549 = assay: Antiproliferative activity against human BT-549 cells assessed as reduction in colony formation up to 20 uM supplemented with fresh medium containing compound every 3 days for 9 days by MTT staining based clonogenic assay; format: functional, cell-based; details: time 9.0 day
[1] = Cytotoxicity against human LS174T-HM7 cells measured after 3 days; format: functional, cell-based; details: LS174T-HM7, 72 h
BT-474 = assay: Cytotoxicity against human BT-474 cells measured after 3 days; format: functional, cell-based; details: BT-474, 72 h
[2] = Cytotoxicity against human HNT-34 cells measured after 3 days; format: functional, cell-based; details: HNT-34, 72 h
[3] = Cytotoxicity against human HCC1493 cells measured after 3 days; format: functional, cell-based; details: HCC1493, 72 h
[4] = Cytotoxicity against human KMS-26 cells measured after 3 days; format: functional, cell-based; details: KMS-26, 72 h
[5] = Cytotoxicity against human MOLP8 cells measured after 3 days; format: functional, cell-based; details: MOLP-8, 72 h
[6] = Cytotoxicity against human OVCA432 cells measured after 3 days; format: functional, cell-based; details: OVCA432, 72 h
[7] = Cytotoxicity against human 59M cells measured after 3 days; format: functional, cell-based; details: 72 h
HCC1143 = assay: Cytotoxicity against human HCC1143 cells measured after 3 days; format: functional, cell-based; details: HCC1143, 72 h
Granta-519 = assay: Cytotoxicity against human Granta-519 cells measured after 3 days; format: functional, cell-based; details: Granta-519, 72 h
OCI-LY19 = assay: Cytotoxicity against human OCILY19 cells measured after 3 days; format: functional, cell-based; details: OCI-LY19, 72 h
MCF-10A = assay: Cytotoxicity against human MCF-10A cells measured after 3 days; format: functional, cell-based; details: 72 h
[8] = Cytotoxicity against human NCI-H820 cells measured after 8 days; format: functional, cell-based; details: NCI-H820, 192 h
CAL-85-1 = assay: Cytotoxicity against human CAL-85-1 cells measured after 3 days; format: functional, cell-based; details: CAL-85-1, 72 h
EOL1 = assay: Cytotoxicity against human EOL1 cells measured after 3 days; format: functional, cell-based; details: EOL1, 72 h
Calu-1 = assay: Cytotoxicity against human Calu-1 cells after 8 days; format: functional, cell-based; details: Calu-1, 192 h
SU-DHL-16 = assay: Cytotoxicity against human SU-DHL-16 cells measured after 3 days; format: functional, cell-based; details: SU-DHL-16, 72 h
[9] = Cytotoxicity against human JHH7 cells measured after 3 days; format: functional, cell-based; details: JHH7, 72 h
[10] = Cytotoxicity against human COV318 cells measured after 3 days; format: functional, cell-based; details: COV318, 72 h
[11] = Cytotoxicity against human NCE-G 61 cells measured after 3 days; format: functional, cell-based; details: NCE-G 61, 72 h
[12] = Cytotoxicity against human HCC2450 cells measured after 3 days; format: functional, cell-based; details: HCC2450, 72 h
WSUDLCL2 = assay: Cytotoxicity against human WSUDLCL2 cells measured after 3 days; format: functional, cell-based; details: WSUDLCL2, 72 h
EFO-27 = assay: Cytotoxicity against human EFO-27 cells measured after 3 days; format: functional, cell-based; details: EFO-27, 72 h
MX1 = assay: Cytotoxicity against human MX1 cells measured after 3 days; format: functional, cell-based; details: MX1, 72 h
KARPAS-422 = assay: Cytotoxicity against human KARPAS-422 cells measured after 3 days; format: functional, cell-based; details: KARPAS-422, 72 h
OPM-2 = assay: Cytotoxicity against human OPM-2 cells measured after 3 days; format: functional, cell-based; details: OPM-2, 72 h
[13] = Cytotoxicity against human RMUG-S cells measured after 3 days; format: functional, cell-based; details: 72 h
[14] = Cytotoxicity against human NCE-G 84 cells measured after 3 days; format: functional, cell-based; details: NCE-G 84, 72 h
HepG2 = assay: Cytotoxicity against human HepG2 cells measured after 3 days; format: functional, cell-based; details: HepG2, 72 h
ACHN = assay: Cytotoxicity against human ACHN cells measured after 3 days; format: functional, cell-based; details: 72 h
NOMO-1 = assay: Cytotoxicity against human NOMO-1 cells measured after 3 days; format: functional, cell-based; details: NOMO-1, 72 h
LP-1 = assay: Cytotoxicity against human LP-1 cells measured after 3 days; format: functional, cell-based; details: LP-1, 72 h
OV-90 = assay: Cytotoxicity against human OV-90 cells measured after 3 days; format: functional, cell-based; details: OV-90, 72 h
[15] = Cytotoxicity against human SUM52PE cells measured after 3 days; format: functional, cell-based; details: 72 h
[16] = Cytotoxicity against human OVSAHO cells measured after 3 days; format: functional, cell-based; details: 72 h
[17] = Cytotoxicity against human COV434 cells measured after 3 days; format: functional, cell-based; details: COV434, 72 h
U-937 = assay: Cytotoxicity against human U-937 cells measured after 3 days; format: functional, cell-based; details: U-937, 72 h
[18] = Cytotoxicity against human VP267 cells measured after 3 days; format: functional, cell-based; details: VP267, 72 h
TMD8 = assay: Cytotoxicity against human TMD8 cells measured after 3 days; format: functional, cell-based; details: TMD8, 72 h
KU812 cell line = assay: Cytotoxicity against human KU812 cell line measured after 3 days; format: functional, cell-based; details: KU812, 72 h
MHH-PREB-1 = assay: Cytotoxicity against human MHH-PREB-1 cells measured after 3 days; format: functional, cell-based; details: MHH-PREB-1, 72 h
G-402 = assay: Cytotoxicity against human G-402 cells measured after 3 days; format: functional, cell-based; details: G-402, 72 h
HT = assay: Cytotoxicity against human HT cells measured after 3 days; format: functional, cell-based; details: 72 h
[19] = Cytotoxicity against human HCC89 cells measured after 3 days; format: functional, cell-based; details: HCC89, 72 h
[20] = Cytotoxicity against human MOLM16 cells measured after 3 days; format: functional, cell-based, MOLM-16; details: MOLM16, 72 h
TOV21G = assay: Cytotoxicity against human TOV-21G cells measured after 3 days; format: functional, cell-based; details: 72 h
HCC95 = assay: Cytotoxicity against human HCC95 cells measured after 3 days; format: functional, cell-based; details: HCC95, 72 h
[21] = Cytotoxicity against human MT-3 cells measured after 3 days; format: functional, cell-based; details: MT-3, 72 h
K562 = assay: Cytotoxicity against human K562 cells measured after 3 days; format: functional, cell-based; details: K562, 72 h
[22] = Cytotoxicity against human HCC1428 cells measured after 8 days; format: functional, cell-based; details: HCC1428, 192 h
[23] = target: Bromodomain-containing protein 4 (Homo sapiens, UniProt O60885); assay: Binding affinity to BRD4 in human PC-9 cell lysate assessed as increase in thermal stabilization at 2 uM at 38 to 71 degreeC measured after 30 mins by CETSA; format: subcellular
[24] = Cytotoxicity against human LUDLU-1 cells measured after 3 days; format: functional, cell-based; details: LUDLU-1, 72 h
MCF7 = assay: Cytotoxicity against human MCF-7-SER cells measured after 8 days; format: functional, cell-based; details: MCF7, 192 h
[25] = Cytotoxicity against human RKN cells measured after 3 days; format: functional, cell-based; details: 72 h
[26] = Cytotoxicity against human HLF cells measured after 3 days; format: functional, cell-based; details: 72 h
SUM-159-PT = assay: Cytotoxicity against human SUM159PT cells measured after 3 days; format: functional, cell-based; details: 72 h
Ramos = assay: Cytotoxicity against human Ramos cells measured after 3 days; format: functional, cell-based; details: 72 h

Question: For `C/C=C/Cn1cc(-c2ccc(C(C)(C)O)cc2OC)c2cc[nH]c2c1=O`, which IC50 (THP-1) is on record?
Answer: The IC50 was 16.2 µM.

Question: What about the Activity (NCI-H1299) of the same compound?
Answer: Its Activity is “inactive”.

Question: And the Activity (BT-549)?
Answer: The Activity was “inactive”.

Question: With `C/C=C/Cn1cc(-c2cc(OC)c(C(=O)N3CCOCC3)cc2OC)c2cc(C)[nH]c2c1=O` as the compound, how does the IC50 [1] read?
Answer: Its IC50 is 5 µM.

Question: And the IC50 (BT-474)?
Answer: Its IC50 is 5 µM.

Question: What about the IC50 [2] of the same compound?
Answer: Its IC50 is 5 µM.

Question: And the IC50 [3]?
Answer: Its IC50 is 5 µM.

Question: What about the IC50 [4] of the same compound?
Answer: The IC50 was 5 µM.

Question: And the IC50 [5]?
Answer: The IC50 was 5 µM.

Question: And the IC50 [6]?
Answer: The IC50 was 5 µM.

Question: And the IC50 [7]?
Answer: The IC50 was 5 µM.

Question: And the IC50 (HCC1143)?
Answer: Its IC50 is 5 µM.

Question: What about the IC50 (Granta-519) of the same compound?
Answer: Its IC50 is 5 µM.

Question: And the IC50 (OCI-LY19)?
Answer: The IC50 was 5 µM.

Question: And the IC50 (MCF-10A)?
Answer: Its IC50 is 5 µM.

Question: And the IC50 [8]?
Answer: Its IC50 is 2 µM.

Question: And the IC50 (CAL-85-1)?
Answer: Its IC50 is 5 µM.

Question: And the IC50 (EOL1)?
Answer: The IC50 was 5 µM.

Question: And the IC50 (Calu-1)?
Answer: The IC50 was 2 µM.

Question: What about the IC50 (SU-DHL-16) of the same compound?
Answer: Its IC50 is 5 µM.

Question: And the IC50 [9]?
Answer: Its IC50 is 5 µM.

Question: And the IC50 [10]?
Answer: Its IC50 is 5 µM.

Question: And the IC50 [11]?
Answer: The IC50 was 5 µM.

Question: What about the IC50 [12] of the same compound?
Answer: Its IC50 is 5 µM.

Question: What about the IC50 (WSUDLCL2) of the same compound?
Answer: The IC50 was 5 µM.

Question: What about the IC50 (EFO-27) of the same compound?
Answer: Its IC50 is 5 µM.

Question: And the IC50 (MX1)?
Answer: Its IC50 is 5 µM.

Question: What about the IC50 (KARPAS-422) of the same compound?
Answer: Its IC50 is 5 µM.

Question: And the IC50 (OPM-2)?
Answer: Its IC50 is 5 µM.

Question: And the IC50 [13]?
Answer: The IC50 was 5 µM.

Question: And the IC50 [14]?
Answer: Its IC50 is 5 µM.

Question: And the IC50 (HepG2)?
Answer: Its IC50 is 5 µM.

Question: What about the IC50 (ACHN) of the same compound?
Answer: The IC50 was 5 µM.

Question: What about the IC50 (NOMO-1) of the same compound?
Answer: The IC50 was 5 µM.

Question: And the IC50 (LP-1)?
Answer: Its IC50 is 5 µM.

Question: And the IC50 (OV-90)?
Answer: The IC50 was 5 µM.

Question: What about the IC50 [15] of the same compound?
Answer: The IC50 was 5 µM.

Question: What about the IC50 [16] of the same compound?
Answer: Its IC50 is 5 µM.

Question: What about the IC50 [17] of the same compound?
Answer: Its IC50 is 5 µM.

Question: And the IC50 (U-937)?
Answer: Its IC50 is 5 µM.

Question: What about the IC50 [18] of the same compound?
Answer: Its IC50 is 5 µM.

Question: What about the IC50 (TMD8) of the same compound?
Answer: The IC50 was 5 µM.

Question: What about the IC50 (KU812 cell line) of the same compound?
Answer: Its IC50 is 5 µM.

Question: And the IC50 (MHH-PREB-1)?
Answer: Its IC50 is 5 µM.

Question: What about the IC50 (G-402) of the same compound?
Answer: Its IC50 is 5 µM.

Question: And the IC50 (HT)?
Answer: Its IC50 is 5 µM.

Question: And the IC50 [19]?
Answer: The IC50 was 5 µM.

Question: What about the IC50 [20] of the same compound?
Answer: The IC50 was 5 µM.

Question: What about the IC50 (TOV21G) of the same compound?
Answer: The IC50 was 5 µM.

Question: What about the IC50 (HCC95) of the same compound?
Answer: Its IC50 is 5 µM.

Question: What about the IC50 [21] of the same compound?
Answer: The IC50 was 5 µM.

Question: And the IC50 (K562)?
Answer: Its IC50 is 5 µM.

Question: And the IC50 [22]?
Answer: The IC50 was 2 µM.

Question: What about the Activity [23] of the same compound?
Answer: Its Activity is “inactive”.

Question: What about the IC50 [24] of the same compound?
Answer: Its IC50 is 5 µM.

Question: What about the IC50 (MCF7) of the same compound?
Answer: The IC50 was 2 µM.

Question: What about the IC50 [25] of the same compound?
Answer: The IC50 was 5 µM.

Question: What about the IC50 [26] of the same compound?
Answer: Its IC50 is 5 µM.

Question: And the IC50 (SUM-159-PT)?
Answer: Its IC50 is 5 µM.

Question: What about the IC50 (Ramos) of the same compound?
Answer: The IC50 was 5 µM.
